Results from patent US20120065165A1, “COMPOSITIONS AND METHODS OF TREATING ENDOTHELIAL DISORDERS” (ARGINETIX, INC, priority 2008, published 2012).

How the values were obtained:
aged Fisher rats [1] = experiment: Erectile function: intracavernous pressure after cavernous nerve stimulation in aged rats; type: in vivo, rat; details: ABH 6 mg/kg in drinking water 28 days
Method: Aged (22-26 months) Fisher rats were given either ABH (6 mg/kg in their drinking water) or plain water for 28 days. Young (4-8 months) were given plain water for 28 days. Rats were then anesthetized and erectile function was evaluated as an indicator of vascular function, by measuring intra-cavernous pressure following electrical stimulation of the cavernous nerve using an electrode placed around the pelvic nerve which innervates the penis (Cama, et al., 2003 Biochemistry 42: 8445-8451). The change in intracavernosal pressure was measured via a catheter placed in the corpora cavernosa. A range of stimulation frequencies were used to measure relaxation effects (and consequentially vascular dependent erectile responses) over their entire functional range.

diabetic ZDF rats = experiment: ABH plus PDE5 inhibitor in diabetic ZDF rats: erectile function and vasorelaxation (Example 8); type: in vivo, rat; details: ABH alone
Method: The effects of ABH and PDE5 inhibitors, singly and in combination, in the ZDF model of type 2 diabetes are tested.
ZLC rats are maintained on a normal diet. […] Ten to twenty minutes prior to each in vivo vasorelaxation experiment, animals will receive a single intravenous dose of the PDE5 inhibitor, sildenafil citrate (Viagra; either 1 or 2 mg/kg iv) or vehicle alone. […] Peak intracavernous pressure, ICP/mean arterial pressure (MAP), and total ICP (area under the erectile curve) are determined in response to intra-cavernous administration of the endothelium-dependent vasodilator ACh, and in response to direct cavernous nerve stimulation. Animals will then be euthanized, and aortas and penile vascular tissues are collected. Biochemical (arginase, NO, eNOS, ROS) and functional (contraction and relaxation in organ baths) indicators of endothelial health are determined in aortic rings and cavernous strips.

rat aortic tissues = experiment: cGMP levels in aortic rings of old rats incubated with sildenafil and ABH (cGMP EIA); type: cell-based; details: sildenafil 0 nM
Method: The source of tissue was old (22 to 24 months) male Fischer 344 rats purchased from National Institute for Aging (NIA). The rats were anesthetized in an isoflurane chamber and euthanized. The entire length of the aorta (thoracic, arch, abdominal) were dissected out and cleaned free of connective tissue. These aorta were then sectioned into ˜3 mm long rings. Samples were collected from 2 rats and pooled. […] Rings were incubated in varying concentrations of sildenafil (0-2000 nM) and ABH (0-500 nM) prepared in 200 μL Krebs buffer for 10 min at 37° C. The rings were then snap frozen in liquid nitrogen following treatment. The next day, samples were homogenized in 200 μL 6% TCA buffer (prepared by adding TCA to DI water) at 4° C. for extraction of cyclic nucleotides. The samples were then centrifuged at 12,000 rpm for 5 min at 4° C. Protein pellets were re-dissolved in PBS to determine protein concentration, and supernatant was reserved for cGMP detection. […] ABH (MW 211.45): A stock solution of ABH at a concentration of 100 mM was prepared by dissolving 21.1 mg of ABH into 1 ml Krebs solution. This was used to prepare 5 ml of a 1 mM stock. 200 μL of the 1 mM solution were dispensed into column 12 of a 96-well plate. Six 2× dilutions were prepared in the plate. 200 μL Krebs were dispensed in column 5 to get a concentration range of 0-1000 nM (2× of final concentration). Sildenafil (MW 474.5): A stock solution of sildenafil at a concentartion of 100 mM was prepared by dissolving 47.4 mg of sildenafil into 1 ml Krebs solution; 5 ml of 2 mM stock was prepared from this. Row A received 200 μL of Krebs buffer (0 mM sildenafil), mixed well, and adjusted to a final volume of 200 μL. Next, 200 μL of the 2 mM sildenafil stock was dispensed into row H of the 96 well plate already containing the ABH dilutions ([…]). Six 2× dilutions were prepared from this to get the final concentration ranges for the two drugs. cGMP levels were determined with a cGMP kit (Amersham cGMP Enzyme immunoassay Biotrak (EIA) System Cat #RPN226) and run in accordance with the manufacture's recommendations. The assay uses a competitive fluorescent immunoassay format to measure levels of cGMP. It combines the use of a peroxidase-labelled cGMP conjugate, a specific antiserum which can be immobilized on to pre-coated microplates, and a one-pot stabilized substrate solution. […] In the absence of cGMP most of the HRP conjugate is bound to the antibody and yields a high fluorescence. Increasing concentrations of cGMP competitively decreases the binding of the HRP conjugate, decreasing the measured fluorescence (HRP activity). […] The plate was then incubated for 2 hrs at room temperature with shaking after which it is washed and the fluorescent substrate is added. The plate was incubated for an additional 10 min and then read on a Molecular Devices Gemini EM plate reader set at Ex 530 nm, Em 590 nm (endpoint mode). The signal is reported to be stable for up to 24 hrs, but was generally read within 2 hrs. […] These values were calculated based on the resultant ratio of fluorescence reading of sample divided by fluorescense reading with no cGMP (pmols/mg). For each concentration combination of sildenafil and ABH administered to cells, absorbance (OD at 450 nm) was measured. From these values, the absorbance adjusted for non-specific binding (NSB) for each sample (OD-NSB(B)) was determined from the absorbance (B) divided by the absorbance without cGMP (Bo). Using this value and the standard curve for cGMP, the log (fmol) is found and, after adjusting for the quantity of protein, the pmols of cGMP/mg protein is calculated.

old rat aorta = experiment: ROS production in aortic rings (DHE fluorescence); type: cell-based; details: aged rat aortas
From the text: ABH improves endothelial function by inhibiting arginase and consequently increasing NO production (by increasing L-arginine availability to eNOS) and decreasing levels of ROS (by preventing eNOS uncoupling). […] Aortic rings were dissected and pinned down, endothelial side up, on a silastic coated culture dish, and then exposed to either the NO-sensitive dye DAF, or the O2-sensitive dye DHE. Since the interaction of NO or ROS with its specific dye is cumulative, the rate of production of each species is proportional to the slope of the fluorescence emitted from the dye as measured using epifluorescence microscopy. […] SNP endothelial-independent NO donor was included as a control (Santhanam et al 2007).
This supports the hypothesis that arginase inhibition results in increased vascular NO production. A corollary of this effect is a decrease in ROS production by re-coupling eNOS to NO production. […] This resulted from deranged NOS activity (uncoupled NOS), since ROS levels could be reduced using the NOS-inhibitor nitro-L-arginine methyl ester (FIG. 6C). […] Similar techniques are used to examine whether ABH can restore NO production and decrease ROS production in vascular endothelial cells and corporal tissue from type 2 diabetic rats.

aged Fisher rats [2] = experiment: Vascular stiffness by pulse wave velocity (PWV) in Fisher rats; type: in vivo, rat
Method: When the heart contracts it generates a pulse, or energy wave, that travels through the circulatory system. […] PWV was determined in aged (22-26 months) Fisher rats, treated with ABH as described in Example 1. […] PWV was measured before and after 28 days of treatment with ABH (6 mg/kg) (See FIG. 5A). ABH improved vascular function in aortic rings tested in organ chambers (See FIG. 5B), while an endothelial-independent NO donor, SNP had no effect (C). *p<0.01 vs. young and #p<0.05 vs. old pre-treated, (n=3-8). […] This affect was not observed in untreated aged rats. There was a small but statistically significant increase in vascular stiffness in young control rats over the 28 days of the experiment. This change however was not observed in rats that were treated with ABH.

[3] = cavernous nerve stimulation, vs controls

N[C@@H](CCCCB(O)O)C(=O)O [ABH, 2(S)-Amino-6-boronohexanoic acid]
all penile hemodynamic parameters after CNS (aged Fisher rats [1]): marked improvement
ratio of mean peak intracavernous pressure (ICP) to mean arterial pressure (MAP) (aged Fisher rats [1]; [3]): marked increase
total ICP (area under the erectile curve) (aged Fisher rats [1]; [3]): marked increase
erectile function (diabetic ZDF rats): some positive effects
Theoretical response T(x,y) based on an additive effect (rat aortic tissues; ABH 7.81 nM): 0.34 pmol/mg
pmols of cGMP/mg protein produced P(x,y) (rat aortic tissues; ABH 7.81 nM): 0.34 pmols/mg
Theoretical response T(x,y) based on an additive effect (rat aortic tissues; ABH 31.25 nM): 0.90 pmol/mg
pmols of cGMP/mg protein produced P(x,y) (rat aortic tissues; ABH 31.25 nM): 0.90 pmols/mg
Theoretical response T(x,y) based on an additive effect (rat aortic tissues; ABH 125 nM): 1.14 pmol/mg
pmols of cGMP/mg protein produced P(x,y) (rat aortic tissues; ABH 125 nM): 1.14 pmols/mg
Theoretical response T(x,y) based on an additive effect (rat aortic tissues; ABH 500 nM): 0.16 pmol/mg
pmols of cGMP/mg protein produced P(x,y) (rat aortic tissues; ABH 500 nM): 0.16 pmols/mg
ROS production (old rat aorta): significantly reduced
vascular stiffness (pulse wave velocity, PWV) (aged Fisher rats [2]; aged (22-26 months) rats, ABH 6 mg/kg 28 days): marked decrease in vascular stiffness
increase in vascular stiffness over the 28 days of the experiment (aged Fisher rats [2]; young rats, ABH treated vs young control rats): not observed
